Test results reported in publication PMC4440766, “Detection of Peptide-Based Nanoparticles in Blood Plasma by ELISA” (PLoS ONE, 2015).

Experiments:
[1] = ELISA quantification of peptide 5A in blood plasma after intravenous injection of peptide 5A nanoparticles; type: in vivo, Wistar rats
Protocol: (§1) The acrylamide based nanoparticles containing peptide 5A were injected in the lateral tail vein of 3 Wistar rats at a concentration of 17.25 mg of nanoparticle per kg of bodyweight, corresponding to 0.5 mg peptide 5A per kg of bodyweight. Blood samples were collected in lithium heparin plasma microtainer tubes (BD, Franklin Lakes, NJ). A small incision was made in the contralateral tail vein and the blood was collected directly into the tube. Immediately after collecting the blood, the tubes were manually inverted 8 times to ensure mixing with the anti-coagulant. Blood samples were stored on ice for up to 30 minutes before separating the plasma by centrifugation at 2000 g for 10 minutes. No hemolysis was observed.
Samples were collected from each animal immediately after injection (time point 0) and at 15, 30, 60, 120, 240, 480 minutes after injection. All plasma samples were stored at -80°C until further analysis.
The plasma samples were diluted 1/500 in PBS, based on the range of the standard curve and the expected initial plasma concentrations. Streptavidin coated ELISA 96-well microplates (Steffens Biotechnische Analysen, Germany) were rinsed with 100 μl PBS per well and incubated with plasma samples in duplicate, for one hour at room temperature. After washing the wells three times with PBS, the carboxyfluorescein group present on the reporter peptide was detected by incubating with monoclonal (mAb) mouse-anti-fluorescein peroxidase-conjugated IgG (Dianova, Hamburg, Germany) diluted 1:100,000 in PBS with 0.1% BSA for one hour. Subsequently, the wells were washed three times with PBS and incubated with soluble high sensitivity TMB (SDT, Baesweiler, Germany) for 10 minutes in the dark. The enzymatic peroxidase reaction was stopped with 1 M HCl and absorbance at 450 nm was measured on a VICTOR X3 Multilabel Plate Reader (Perkin Elmer, Waltham, MA). All incubations were performed at room temperature on a plate shaker at 650 rpm. The wells were washed with PBS three times both after sample and antibody incubation. The TMB reaction was performed in the dark for 10 minutes. […] The absorbance at 450 nm of the negative controls was considered as background and subtracted from the absorbance of the plasma samples.
Free peptide 5A was used as a positive control in the ELISA described above with a lower limit of detection of 1 ng/mL (data not shown). Nanoparticles containing a known concentration of peptide 5A, were used to generate a standard curve for the quantification of blood plasma samples. The standard curve data were fitted to a Hill curve using Graphpad Prism (Graphpad Software, La Jolla, CA) and the Hill equation was used to calculate the concentration of peptide 5A in blood plasma samples from the absorbance at 450 nm (See S1 Table).

[2] = LC/MS quantification of peptide 5A in blood plasma of nanoparticle injected rats; type: in vivo, Wistar rats; conditions: same rat plasma samples
Protocol: as §1, with “observed. […]” for “observed.”
Peptide 5A standards were prepared by spiking rat plasma with peptide 5A+B and subsequently reducing the disulfide bond between peptide 5A and 5B, yielding free peptide 5A as depicted in Fig 1. […] (Neither the peaks corresponding to the mass of peptide 5B nor the unreduced peptide 5A+B were analyzed, see LC-MS analysis section). […]
Plasma samples for LC/MS were prepared by adding 300 μL of 10 mM TCEP in loading mobile phase mix to 30 μL of sample. […] The filtrate was transferred to autosampler vials and analyzed or frozen at -80°C until analysis.
Samples with expected concentrations higher than the upper limit of quantification were diluted with rat plasma prior to sample preparation. […]

[3] = i.v. nanoparticles 17.25 mg/kg = 0.5 mg peptide 5A per kg, Wistar rats, n = 3

peptide 5A plasma concentration (ELISA), highest concentration ([1]; 15 minutes after injection, i.v. lateral tail vein, nanoparticles 17.25 mg/kg = 0.5 mg peptide 5A per kg, male Wistar rats, plasma diluted 1/500 in PBS, mean ± S.E.M., 3 animals): 2706 ± 466 ng/mL | time after injection up to which the peptide was detected in plasma (ELISA) [1, 3]: up to 2 hours | time of highest plasma concentration (ELISA) [1, 3]: 15 min | peptide 5A plasma concentration (ELISA) ([1]; time point 0 (immediately after injection), i.v. lateral tail vein, nanoparticles 17.25 mg/kg = 0.5 mg peptide 5A per kg, male Wistar rats, plasma diluted 1/500 in PBS, mean ± S.E.M., 3 animals): 1661 ± 514 ng/mL | factor by which plasma concentrations measured by LC/MS were higher than by ELISA [2]: ~4
Substance: napvsipqKGGC [peptide 5A, reporter peptide napvsipqKGGC functionalized with biotin and carboxyfluorescein, attached to nanoparticles]
